{"source": "patent EP1202746B1", "about": "“NSAID AND EGFR KINASE INHIBITOR CONTAINING COMPOSITION FOR THE TREATMENT OR INHIBITION OF COLONIC POLYPS AND COLORECTAL CANCER” (Wyeth Holdings Corporation, priority 1999, dated 2001)", "system": "intestinal polyps (adenomas)", "assay": "Min mouse intestinal polyp test procedure emulating familial adenomatous polyps (FAP); polyps counted on day 61", "type": "in vivo, Min mouse (C57BL/6J-Min/+)", "description": "The procedure described below emulates familial adenomatous polyps (FAP) in humans using the Min mouse (C57BL/6J-Min/+), which is a strain which has […] of the APC gene. These animals develop multiple intestinal polyps (adenomas) that ultimately progress to form adenocarcinomas. The polyps that develop in Min mice express EGFR and have activated COX-2.\nTest animals were divided into four treatment groups: Group I, control; Group II, N-[4-[(3-bromophenyl)amino]-6-quinazolinyl]-2-butynamide; Group III, sulindac; and Group IV, combination of sulindac and N-[4-[(3-bromophenyl)amino]-6-quinazolinyl]-2-butynamide (hereinafter referred to as the NSAID/EGFR kinase inhibitor combination). The test compound was blended with a standard murine chow and animals were given ad libitum access to the food, in quantities corresponding to the following approximate daily dosages: Group II - 40 mg/kg/day N-[4-[(3-bromophenyl)amino]-6-quinazolinyl]-2-butynamide; […]; and Group IV - 40 mg/kg/day N-[4-[(3-bromophenyl)amino]-6-quinazolinyl]-2-butynamide and 20 mg/kg/day sulindac. The animals were treated for 60 days. The food was weighed once per week to determine consumption, and the animals also weighed weekly. On day 61, the animals were euthanized with CO2 inhalation, and the entire intestinal tract from stomach to anus was removed. The intestinal tract was injected with Bouins fixative, and allowed to fix for several days. The intestinal tracts were then opened and the number of polyps counted. Statistical analysis was performed using the Student's t-Test; a p value of ≤ 0.05 is considered statistically significant.\nThe animals were treated for 60 days. The food was weighed once per week to determine consumption, and the animals also weighed weekly. On day 61, the animals were euthanized with CO2 inhalation, and the entire intestinal tract from stomach to anus was removed. The intestinal tract was injected with Bouins fixative, and allowed to fix for several days. The intestinal tracts were then opened and the number of polyps counted. Statistical analysis was performed using the Student's t-Test; a p value of ≤ 0.05 is considered statistically significant."}
{"smiles": "CCOc1cc2ncc(C#N)c(Nc3ccc(F)c(Cl)c3)c2cc1NC(=O)C=CCN(C)C", "note": "[4-dimethylamino-but-2-enoic acid [4-(3-chloro-4-fluoro-phenylamino)-3-cyano-7-ethoxy-quinolin-6-yl]-amide]", "values": [{"measurement": "reduced polyp numbers", "setting": "third run, alone, 20 mg/kg, 60 days, versus control", "value": 87, "unit": "%"}]}
{"smiles": "CC#CC(=O)Nc1ccc2ncnc(Nc3cccc(Br)c3)c2c1", "note": "[N-[4-[(3-bromophenyl)amino]-6-quinazolinyl]-2-butynamide]", "values": [{"measurement": "Number of Polyps", "setting": "Group II: 40 mg/kg/day in chow, 60 days, control Group I 32.3 ± 20.7", "value": "15.6 ± 10.6"}]}
{"smiles": "CC1=C(CC(=O)O)c2cc(F)ccc2/C1=C\\c1ccc([S+](C)[O-])cc1", "note": "(centres unmarked) [sulindac]", "values": [{"measurement": "Number of Polyps", "setting": "Group III: 20 mg/kg/day sulindac in chow, 60 days, control Group I 32.3 ± 20.7", "value": "10.0 ± 6.6"}, {"measurement": "Number of Polyps", "setting": "third run, Group III: 5 mg/kg/day sulindac in chow, 60 days, control Group I 19.5 ± 14.1", "value": "20.6 ± 11.8"}, {"measurement": "polyp numbers (result in words)", "setting": "third run, sulindac alone at the 5mg/kg dose", "value": "did not reduce polyp numbers at all"}]}
